Data set [1] in a line: solubility in pH 7.4 phosphate buffer by HPLC. It counts as physicochemical. The following applies: 25 °C, aqueous buffer; sodium salt; pH 7.4, 0.05M phosphate buffer; maximum total concentration 200 uM; 25 deg; read-out: Solvent Solubility at 25 deg, Water pH 7.4. How it is done: The solubility of each compound was determined as follows: two samples are prepared for each compound. One (the standard sample) contains the compound at a fixed concentration of 20 uM in an aqueous/organic mixed solvent cocktail. The other (the test sample) contains the compound at a maximum total concentration of 200 uM in pH 7.4, 0.05M phosphate buffer. The test sample is spun for 15 minutes to remove any undissovled solid. HPLC analyses are performed on these samples. The relative peak areas are used for computing the solubility. The sodium salt of each compound was used for the comparison.

A short description of data set [2]: oral blood exposure (DNAUC) in rats. Further details: unit not given here. Conditions: sodium salt, oral gavage, dose ~1-4 mg/kg, 50% PEG-400, 10% ethanol, 40% of 40% (w/v) aqueous Encapsin. The data set is classed as in vivo, male Sprague-Dawley rats. How it is done:
Blood (120 microliters) was sampled at the following time intervals: 0, 20, 40, 60,120,180, 240, 360, 480, and 1440 min. […] The oral exposures of the sodium salt of Compound B and the sodium salt of Compound C were quantified by the same method.

Data set [3] in a line: bioavailability in the Beagle dog. The data set is classed as in vivo.
Data set [4] is described as follows: physical and chemical stability / hygroscopicity of the crystalline compound. The data set is classed as physicochemical.

One may read the solubility as the concentration that dissolves in the medium under given conditions.

Where a name gives a salt, the structure may show the parent alone.

In the case of `O=C1NC(=Nc2c(Cl)cccc2Cl)S/C1=C\c1ccc2nccnc2c1` [Compound A · Na, (5Z)-5-(6-quinoxalinylmethylidene)-2-[(2,6-dichlorophenyl)amino]-1,3-thiazol-4(5H)-one sodium salt], the solubility in data set [1] was found to be 31 µM.

In the case of `O=C1NC(=Nc2c(Cl)cccc2Cl)S/C1=C\c1ccc2ncccc2c1` [Compound B · Na, 2-(2,6-dichloro-phenylimino)-5-(quinolin-6-ylmethylene)-thiazolidin-4-one sodium salt, reference compound], the solubility in data set [1] was 6 µM. In data set [2], the “Oral DNAUC rats (Sprague-Dawley)” value worked out at 0.49.

For the molecule `O=C1NC(=Nc2ccccc2Cl)S/C1=C\c1ccc2nccnc2c1` [Compound C · Na, 2-(2-chloro-phenylimino)-5-(quinoxalin-6-ylmethylene)-thiazolidin-4-one sodium salt], in data set [2], the “Oral DNAUC rats (Sprague-Dawley)” value was determined as 0.34.

In the case of `O=C1NC(=Nc2c(Cl)cccc2Cl)S/C1=C\c1ccc2nccnc2c1` [Compound D, (5Z)-5-(6-quinoxalinylmethylidene)-2-[(2,6-dichlorophenyl)amino]-1,3-thiazol-4(5H)-one meglumine], the bioavailability result in data set [3] was “demonstrated bioavailability”. Moreover, in data set [4], the hygroscopicity result is “non-hygroscopic”; the “physical and chemical stability” value is “physically and chemically stable”.

(Values after patent publication US7674792B2, “5(Z)-5-(6-quinoxalinylmethylidene)-2-[2,6-dichlorophenyl)amino]-1,3-thiazol-4(5H)-one” (GlaxoSmithKline LLC, priority 2005, dated 2010).)
